In US5436369A, “Alicyclic phospholipase A2 inhibitors” (Bristol-Myers Squibb Company, priority 1994, dated 1995):

biological target: T1, PLA2 (Homo sapiens, UniProt P14555); assay: PLA2 Inhibition Assay (14C-oleate labeled E. coli membrane substrate); assay type: biochemical; conditions: Table 4, Structure 20 (Type IB); 100 μM; enzyme isolated from human platelets
T1 construct: The enzyme is isolated from human platelets; from tissue; host or cells: human platelets
T1 sequence (P14555 21-144): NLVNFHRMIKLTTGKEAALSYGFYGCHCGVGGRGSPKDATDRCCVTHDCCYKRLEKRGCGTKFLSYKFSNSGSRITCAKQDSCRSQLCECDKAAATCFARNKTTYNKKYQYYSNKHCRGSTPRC
Method: The method used is similar to that reported by Franson, et al. [Jesse, R. L. and Franson R. C., Biochim. Biophys. Acta 575:467-470 (1979); Franson, R. C., Patriarca, P., and Elsback, P., J. Lipid Res. 15: 380-388 (1974)]. The enzyme is isolated from human platelets. The substrate used consists of ^14 C-oleate labeled Escherichia coli membranes. E. coli cells are grown in the presence of ^14 C-oleic acid and then autoclaved to prepare the membranes.
Various concentrations of test compounds are pre-incubated with PLA2 (3.6 μg/mL in a buffer consisting of 25 mM HEPES (pH 7)), 150 mM NaCl, 5.0 mM CaCl2, and 10% DMSO (v/v, test compound solvent) at 37° C. for 7 minutes. The E. coli membrane substrate is then added (0.1 mM phospholipid, 0.005 μCi ^14 C) and the reaction is then incubated at 37° C. for 30 minutes. The reaction is then terminated by the addition of 1.9 mL tetrahydrofuran (THF), and the entire solution is applied to a solid-phase extraction column (aminopropyl resin, Analytichem). The column is rinsed with an additional 1 mL of THF. The free fatty acid product of the reaction is then eluted from the column with 1 mL of 2% acetic acid in THF and collected in a scintillation vial. The amount of free fatty acid product is determined by liquid scintillation counting. The amount of inhibition produced by the test compound is calculated by comparing the counts obtained in the presence of the compound to those obtained in its absence (solvent only). Background counts were determined by performing incubations in the absence of enzyme.
Percent inhibition is determined by the equation: [formula]

Going from `CC1(C)CCC(C)(C)c2cc(CC/C=C(/C=C/C(=O)O)c3cccc(C(F)(F)F)c3)ccc21` [Structure 20a, (2E),(4Z)-4-(3-Trifluoromethylphenyl)-7-(5,6,7,8-tetrahydro-5,5,8,8-tetramethyl-2-naphthalenyl)-2,4-heptadienoic acid] to `CC1(C)CCC(C)(C)c2cc(CC/C=C(/C=C/C(=O)O)c3cccc(F)c3)ccc21` [Structure 20c, (2E),(4Z)-4-(3-Fluorophenyl)-7-(5,6,7,8-tetrahydro-5,5,8,8-tetramethyl-2-naphthalenyl)-2,4-heptadienoic acid], the inhibition at 100 µM rises from 52% to 67%.

First: CC1(C)CCC(C)(C)c2cc(CC/C=C(/C=C/C(=O)O)c3ccc(F)cc3)ccc21 [Structure 20b]
Second: CC1(C)CCC(C)(C)c2cc(CC/C=C(/C=C/C(=O)O)c3ccccc3)ccc21 [Structure 20d, (2E),(4Z)-4-Phenyl-7-(5,6,7,8-tetrahydro-5,5,8,8-tetramethyl-2-naphthalenyl)-2,4-heptadienoic acid]
The inhibition at 100 µM of the first is higher: 73% for the first, 62% for the second.

Going from `COc1ccc(CC/C=C(/C=C/C(=O)O)c2cccc(C(F)(F)F)c2)cc1C12CC3CC(CC(C3)C1)C2` [Structure 20e, (2Z),(4Z)-4-(3-Trifluoromethylphenyl)-7-[3-(1-adamantyl)-4-methoxyphenyl]-2,4-heptadienoic acid] to `COc1cc(CC/C=C(/C=C/C(=O)O)c2cccc(C(F)(F)F)c2)ccc1C12CC3CC(CC(C3)C1)C2` [Structure 20f, (2Z),(4Z)-4-(3-Trifluoromethylphenyl)-7-[4-(1-adamantyl)-3-methoxyphenyl]-2,4-heptadienoic acid], the inhibition at 100 µM rises from 81% to 90%.

same assay, conditions: Table 6, Structure 40 (Type ID); 100 μm as printed; enzyme isolated from human platelets

For `CC1(C)CCC(C)(C)c2cc(CC/C=C(/CCC(=O)O)c3cccc(C(F)(F)F)c3)ccc21` [Structure 40, (Z)-4-(3-trifluoromethylphenyl)-7-(5,6,7,8-tetrahydro-5,5,8,8-tetramethyl-2-naphthalenyl)-4-heptenoic acid], the “% Inhibition of PLA2 AT 100 μm” value was 79%.
